Tests used:
[1] = test system: HT-29; test: Cytotoxicity against human HT-29 cells assessed as inhibition of cell growth measured after 72 hrs; format: functional, cell-based; conditions: HT-29, 72 h
[2] = test system: A549; test: Cytotoxicity against human A549 cells assessed as inhibition of cell growth measured after 72 hrs; format: functional, cell-based; conditions: A549, 72 h
[3] = test system: CCD-841CoN; test: Cytotoxicity against human CCD-841CoN cells assessed as inhibition of cell growth measured after 72 hrs; format: cell-based
[4] = test system: MCF7; test: Cytotoxicity against human MCF7 cells assessed as inhibition of cell growth measured after 72 hrs; format: functional, cell-based; conditions: MCF7, 72 h
[5] = test system: HL-60; test: Cytotoxicity against human HL-60 cells assessed as inhibition of cell growth measured after 72 hrs; format: functional, cell-based; conditions: HL-60, 72 h

SMILES	IC50 [1] [µM]	IC50 [2] [µM]	IC50 [3] [µM]	IC50 [4] [µM]	IC50 [5] [µM]
C=c1c2c(CC)c3cc(O)ccc3nc2c2cc3c(c(=O)n12)COC(=O)[C@]3(O)CC	0.15	1.94	92.2		
CCc1c2c(nc3ccc(O)cc13)-c1cc3c(c(=O)n1[C@H]2CN1CCCC1)COC(=O)[C@]3(O)CC	0.598	0.204	24.4	0.81	0.011
CCc1c2c(nc3ccc(O)c(CN4CCC4)c13)-c1cc3c(c(=O)n1[C@@H]2CO)COC(=O)[C@]3(O)CC	2.5	1.17	> 1000	6.7	0.113
CCc1c2c(nc3ccc(O)cc13)-c1cc3c(c(=O)n1[C@H]2CO)COC(=O)[C@]3(O)CC	9.48	4.27	382	15.9	0.722
CCc1c2c(nc3ccc(O)c(CN4CCC4)c13)-c1cc3c(c(=O)n1[C@H]2CO)COC(=O)[C@]3(O)CC	6.98	5.22	> 1000	11.1	0.334
CCc1c2c(nc3ccc(O)c(N(C)CCO)c13)-c1cc3c(c(=O)n1C2)COC(=O)[C@]3(O)CC	0.15	0.403	36.1	1.21	0.009
CCc1c2c(nc3ccc(O)c(CO)c13)-c1cc3c(c(=O)n1C2)COC(=O)[C@]3(O)CC	0.68	11	> 1000		
CCc1c2c(nc3ccc(O)cc13)-c1cc3c(c(=O)n1[C@@H]2CO)COC(=O)[C@]3(O)CC	14.8	6.54	62	14.9	1.89
CCc1c2c(nc3ccc(O)cc13)-c1cc3c(c(=O)n1[C@@H]2CN1CCCC1)COC(=O)[C@]3(O)CC	0.493	0.272	21.8	0.906	0.007
CCc1c2c(nc3ccc(O)cc13)-c1cc3c(c(=O)n1C2)COC(=O)[C@]3(O)CC [7-ETHYL-10-HYDROXYCAMPTOTHECIN]	0.02	0.028	4.98	0.66	0.002
CCc1c2c(nc3ccc(OC(=O)N4CCC(N5CCCCC5)CC4)cc13)-c1cc3c(c(=O)n1C2)COC(=O)[C@]3(O)CC [IRINOTECAN]	6.85	26.7	90.2	14.1	4.24
